System: not listed separately
Test: Inhibition of amphetamine-induced hyperlocomotion
Assay type: in vivo
Conditions: mice; sc, 30 minutes before 1.5 mg/kg d-amphetamine sulphate sc; measured for 60 minutes
Experimental: Mice were injected sc with drug or vehicle control. 30 Minutes later mice were injected sc with 1.5 mg/kg d-amphetamine sulphate or saline and immediately placed in infra red locomotor boxes where locomotor activity (long duration beam breaks of two adjacent beams) and stereotypic behaviour (repetitive short-duration beam breaks) were measured for a period of 60 minutes. The experiment was analysed using a 3-Way ANOVA with experimental session, infra red locomotor boxes and treatment as factors, and in the case of treatment, significant effects were followed up using a Tukey (HSD) test.

In the case of `O=C1c2cccc(F)c2OC[C@H]2CCCN12` [Example 3A, (R)-9-Fluoro-2,3,11,11a-tetrahydro-1H,5H-pyrrolo[2,1c][1,4]benzoxazepine-5-one], the “antipsychotic like activity (inhibited amphetamine induced hyperlocomotion)” value is reported as “antipsychotic like activity”.
With `O=C1c2ccccc2OC[C@@H]2CCCN12` [(S)-2,3,11,11a-tetrahydro-1H,5H-pyrrolo[2,1-c][1,4]benzoxazepine-5-one, reference compound] the “antipsychotic like activity (inhibited amphetamine induced hyperlocomotion)” value was “antipsychotic like activity”.

System: AMPA receptor
Test: Patch clamp whole cell electrophysiology: glutamate-evoked steady state current in cultured hippocampal neurons
Assay type: cell-based, Sprague-Dawley rats
Conditions: 10 μM compound in extracellular solution; glutamate 0.5 mM; holding potential −60 mV; cultured rat hippocampal neurons
Source text: The benzoxazepines of the invention are AMPA receptor stimulators, as can be determined by an increase in steady state current induced by application of glutamate in a conventional whole cell patch clamp method when a benzoxazepine of the invention is present (see Example 30 and Table I). The compounds may be used in the treatment of neurological and psychiatric diseases where an enhancement of synaptic responses mediated by AMPA receptors is required, such as neuro-degenerative disorders, cognitive or memory dysfunction, memory and learning disorders such as can result from ageing, attention disorder, trauma, stroke, epilepsy, Alzheimer's disease, depression, schizophrenia, psychotic disorders, anxiety, sexual dysfunctions, autism, or a disorder or disease resulting from neurotic agents or substance abuse, and alcohol intoxication.
Hippocampal neurons were prepared from embryonic or 1-3 day old Sprague-Dawley rats which were decapitated and the heads immediately placed in ice cold HBS (HEPES Buffered Solution: 130 mM NaCl, 5.4 mM KCl, 10 mM HEPES, 1.0 mM MgCl2, 1.8 CaCl2, 25 mM glucose, adjusted to pH 7.4). The whole brain was excised and placed on pre-sterilised filter paper, soaked in HBS and the cerebellum was removed. The brain was chopped and an enzyme solution (0.5 mg/ml protease X and 0.5 mg/ml protease in HBS) was added and subsequently left for 40 minutes at room temperature to digest before trituration. Cells were resuspended and then counted to give a final concentration of 1.5×10^8 per ml. Cells were aliquoted onto poly-D-lysine- and Matrigel®-treated coverslips and left to incubate at 37° C. for 1-2 hours. When incubation was complete, 1 ml of growth medium was added to each well containing a coverslip and the cells were returned to the incubator. After 3-5 days the mitotic inhibitor cytosine arabinoside (5 μM) was added and the cells returned to the incubator until required.
The whole cell configuration of the patch clamp technique (Hamill et al., Pflũgers Arch. 1981, 39, 85-100) was used to measure glutamate-evoked currents from postnatal hippocampal neurons maintained in culture for 4-7 days. A glass coverslip containing the culture was transferred to the recording chamber (Warner Instrument Corp., Hamden, Conn.) mounted on the stage of an inverted microscope (Nikon, Kingston, UK). The recording chamber contained 1-2 ml extracellular solution (145 mM NaCl, 5.4 mM KCl, 10 mM HEPES, 0.8 mM MgCl2, 1.8 CaCl2, 10 mM glucose and 30 mM sucrose, adjusted to pH 7.4 with 1M NaOH) and was constantly perfused at a rate of 1 ml/min. Recordings were performed at room temperature (20-22° C.) using an Axopatch 200B amplifier (Axon Instruments Ltd., Foster City, Calif.). Data acquisition and analysis was performed using Signal software (Cambridge electronic Design Ltd., Cambridge, UK). Pipettes were manufactured from GC120F-10 glass (Harvard Apparatus, Edenbridge UK) using a model P-87 electrode puller (Sutter Instruments Co., Novarto, Calif.). The patch electrodes had typical resistances of between 3-5 MΩ when filled with intracellular solution (140 mM potassium gluconate, 20 mM HEPES, 1.1 mM EGTA, 5 mM phosphocreatine, 3 mM ATP, 0.3 mM GTP, 0.1 mM CaCl2, 5 mM MgCl2, adjusted to pH 7.4 with 1M KOH).
Cells were voltage clamped at a holding potential of −60 mV and glutamate (0.5 mM) was applied using a 12 channel semi-rapid drug application device (DAD-12. Digitimer Ltd., Welwyn Garden City, UK). The agonist glutamate was applied for 1 s every 30 s. […] Between applications saline flowed to clear any dead volume in the system. For each application steady-state currents were plotted from the difference in baseline and steady state current and averaged over 300 ms.
Two solutions of the compound in extracellular solution were made up, one with glutamate and one without. The protocol was: 10 second application of compound, 1 second application of compound+glutamate and then 10 second wash with saline, then a 10 second delay. […]

Compared with `O=C1c2ccccc2OCC2COCCN12` (stereo not drawn) [Example 22, 6,6a-Dihydro-12H-Morpholino[3,4-c][1,4]benzoxazepin-12-one], `O=C1c2ccccc2OC[C@@H]2CCN12` [Example 23, (S)-1,2,10,10a-Tetrahydroazetidinyl[2,1-c][1,4]benzoxazepin-4-one] is lower in “% Increase In steady state current at 10 μM” value: 31% for the first, 16% for the second.

First: O=C1c2cccc(F)c2OC[C@H]2CCCN12 [Example 3A, (R)-9-Fluoro-2,3,11,11a-tetrahydro-1H,5H-pyrrolo[2,1c][1,4]benzoxazepine-5-one]
Second: O=C1c2cccc(F)c2OC[C@@H]2CCCN12 [Example 3B, (S)-9-Fluoro-2,3,11,11a-tetrahydro-1H,5H-pyrrolo[2,1-c][1,4]benzoxazepine-5-one]
The “% Increase In steady state current at 10 μM” value of the first is higher: 23% for the first, 20% for the second.

First: NC(=O)c1ccc2c(c1)C(=O)N1CCC[C@H]1CO2 [Example 17A, (S)-7-(aminocarbonyl)-2,3,11,11a-tetrahydro-1H,5H-pyrrolo[2,1-c][1,4]benzoxazeline-5-one]
Second: O=C1c2cc(F)ccc2OC[C@@H]2CCCN12 [Example 2, (S)-7-Fluoro-2,3,11,11a-tetrahydro-1H,5H-pyrrolo[2,1-c][1,4]benzoxazepine-5-one]
The “% Increase In steady state current at 10 μM” value of the first is lower: 8% for the first, 19% for the second.

Going from `O=C1c2ccccc2OC[C@@H]2CC(F)(F)CN12` [Example 28, (2S)-2,2-Difluoro-2,3,11,11a-tetrahydro-1H,5H-pyrrolo[2,1-c][1,4]benzoxazepine-5-one] to `O=C1c2ccccc2OC[C@@H]2C[C@H](F)CN12` [Example 26, (2S,11aS)2-Fluoro-23,11,11a-tetrahydro-1H,5H-pyrrolo[2,1-c][1,4]benzoxazepine-5-one], the “% Increase In steady state current at 10 μM” value rises from 9% to 24%.

Compared with `O=C1c2ccccc2OC[C@@H]2C[C@@H](O)CN12` [Example 25, (2R,11aS)-2-Hydroxy-2,3,11,11a-tetrahydro-1H,5H-pyrrolo[2,1-c][1,4]benzoxazepine-5-one], `O=C1c2ccccc2OC[C@@H]2CCCN12` [(S)-2,3,11,11a-tetrahydro-1H,5H-pyrrolo[2,1-c][1,4]benzoxazepine-5-one, reference compound] is higher in “% Increase In steady state current at 10 μM” value: 31% for the first, 53% for the second.

Going from `O=S1(=O)c2ccccc2OC[C@@H]2CCCN21` [Example 10, (S)-2,3,11,11,a-tetrahydro-1H,5H-pyrrolo[2,1-c][5,1,4]benzthiaoxazepine-5-dioxide] to `O=C1c2ccccc2OC[C@H]2CCCN12` [(R)-2,3,11,11a-tetrahydro-1H,5H-pyrrolo[2,1-c][1,4]benzoxazepine-5-one, reference compound], the “% Increase In steady state current at 10 μM” value rises from 7% to 24%.

Going from `CC1(C)COC2COc3ccccc3C(=O)N21` (stereo not drawn) [Example 24, 2,11,11a-Trihydro-3,3dimethyloxazolidinyl[2,1-c][1,4]-benzoxazepin-5-one] to `CC[C@@H]1Oc2ccccc2C(=O)N2CCC[C@@H]12` [Example 20B, (11S. 11aS)-11-Ethyl-2,3,11,11a-tetrahydro-1H,5H-pyrrolo[2,1-c][1,4]benzoxazepine-5-one], the “% Increase In steady state current at 10 μM” value rises from 18% to 28%.

Going from `COc1ccc2c(c1)OC[C@@H]1CCCN1C2=O` [Example 11, (S)-8-Methoxy-2,3,11,11a-tetrahydro-1H,5H-pyrrolo[2,1-c][1,4]benzoxazepine-5-one] to `O=C1c2cc(F)ccc2OC[C@H]2CCCN12` [Example 1, (R)-7-Fluoro-2,3,11,11a-tetrahydro-1H,5H-pyrrolo[2,1-c][1,4]benzoxazepine-5-one], the “% Increase In steady state current at 10 μM” value falls from 21% to 17%.

Going from `CC(=O)Nc1ccc2c(c1)C(=O)N1CCC[C@H]1CO2` [Example 14, (S)-N-(2,3,11,11a-tetrahydro-5-oxo-1H,5H-pyrrolo[2,1-a][1,4]benzoxazepin-7-yl)-acetamide] to `O=C(c1ccc2c(c1)C(=O)N1CCC[C@H]1CO2)N1CCOCC1` [Example 16A, (S)-7-(morpholinocarbonyl)-2,3,11,11a-tetrahydro-1H,5H-pyrrolo[2,1-c][1,4]-benzoxazepine-5-one], the “% Increase In steady state current at 10 μM” value falls from 49% to 24%.

For `CC[C@H]1Oc2ccccc2C(=O)N2CCC[C@@H]12` [Example 20A, (11R, 11aS)-11-Ethyl-2,3,11,11a-tetrahydro-1H,5H-pyrrolo[2,1-c][1,4]benzoxazepine-5-one], the “% Increase In steady state current at 10 μM” value was 31%.

System: not given
Test: not given
Conditions: not given

First: O=C1c2ccc(F)cc2OC[C@@H]2CCCN12 [Example 5, (S)-8-fluoro-2,3,11,11a-tetrahydro-1H,5H-pyrrolo[2,1-c][1,4]benzoxazepine-5-one]
Second: O=C1c2ccc(Cl)cc2OC[C@H]2CCCN12 [Example 4, (R)-8-chloro-2,3,11,11a-tetrahydro-1H,5H-pyrrolo[2,1-c][1,4]benzoxazepine-5-one]
The melting point of the first is lower: 75 to 76 °C for the first, 92 to 94 °C for the second.

First: N#Cc1ccc2c(c1)C(=O)N1CCC[C@@H]1CO2 [Example 19, (R)-7-Cyano-2,3,11,11a-tetrahydro-1H5H-pyrrolo[2,1-c][1,4]benzoxazepine-5-one]
Second: O=C1c2cccc(Cl)c2OC[C@@H]2CCCN12 [Example 8, (S)-9-Chloro-2,3,11,11a-tetrahydro-1H,5H-pyrrolo[2,1-c][1,4]benzoxazepine-5-one]
The melting point of the first is higher: 164 to 165 °C for the first, 89 to 90 °C for the second.

Work on `O=C(c1ccc2c(c1)C(=O)N1CCC[C@H]1CO2)N1CCCCC1` [Example 15, (S)-7-(Piperidinocarbonyl)-2,3,11,11a-tetrahydro-1H,5H-pyrrolo[2,1-c][1,4]benzoxazepine-5] yielded a melting point of 140 to 140.5 °C.

System: not listed separately
Test: Differential Reinforcement of Low Rates of Responding, 72 Seconds (DRL72)
Assay type: in vivo
Conditions: rats; intraperitoneal route 30 minutes before the test session
Experimental: Rats are pretrained in a standard operant chamber to perform a DRL72 procedure according to Andrews et al (Andrews J S, Jansen J H M, Linders S, Princen A, Drinkenburg W H I M, Coenders C J H and Vossen J H M (1994). Effects of imipramine and mirtazapine on operant performance in rats. Drug Development Research, 32:58-66). The test session lasts for 60 minutes with no limit to the number of trials. Each trial begins with the stimulus light on above the active lever. A response on the lever only results in delivery of a pellet if 72 seconds has elapsed. A response on the lever before 72 seconds has elapsed resets the timer and is not rewarded. The number of pellets earned and the number of lever presses is recorded and used to calculate an efficiency score. Test compounds are administered via the intraperitoneal route 30 minutes before the start of the test session. Antidepressants increase the number of pellets earned and decrease the number of lever presses (Andrews et al, 1994).

For `O=C1c2cccc(F)c2OC[C@@H]2CCCN12` [Example 3B, (S)-9-Fluoro-2,3,11,11a-tetrahydro-1H,5H-pyrrolo[2,1-c][1,4]benzoxazepine-5-one], the “antidepressant like profile in DRL72” value was “antidepressant like profile”.

From patent publication US7504390B2, “Benzoxazepine derivatives and their use as AMPA receptor stimulators” (N.V. Organon, priority 2001, dated 2009)
